Reference: patent US4134980A, “Phenylalkylamino-alkyl derivatives of quinazolinone and phthalazinone” (Boehringer Ingelheim GmbH, priority 1976, dated 1979)
Counter-ions that a name gives are not always drawn.

What was measured:
[1] = test system: heart rate; assay: Effect on heart rate in anesthetized cats (Table I); format: in vivo
[2] = test system: heart rate; assay: Effect on heart rate in anesthetized dogs (Table II); format: in vivo
[3] = LD50 in mice, observation time of 14 days; conditions: mouse, in vivo, iv, observation time of 14 days
Source text: Additionally, it should be noted that at all dosage levels the test compounds were tolerated very well and produced no toxic side-effects.

Row | Structure (SMILES) | Decrease in heart rate ([1]; 0.5 mg/kg i.v.) [beats/minute] | Duration of Effective action ([1]; 0.5 mg/kg i.v.) [min] | Decrease in heart rate ([1]; 1.0 mg/kg i.v.) [beats/minute] | Duration of Effective action ([1]; 1.0 mg/kg i.v.) [min] | Decrease in heart rate ([1]; 2.0 mg/kg i.v.) [beats/minute] | Duration of Effective action ([1]; 2.0 mg/kg i.v.) [min] | Decrease in heart rate ([2]; 0.25 mg/kg i.v.) [beats/minute] | Duration of Effective action ([2]; 0.25 mg/kg i.v.) [min] | Decrease in heart rate ([2]; 1.0 mg/kg i.v.) [beats/minute] | Duration of Effective action ([2]; 1.0 mg/kg i.v.) [min] | other results
1 | COc1ccc(CCN(C)CCCn2ncc3cc(OC)c(OC)cc3c2=O)cc1.Cl [D, 1-[6,7-dimethoxy-1(2H)-phthalazinone-2-yl]-3-[N-methyl-N-(2-(4-methoxyphenyl)-ethyl)-amino]-propane hydrochloride] | -6 | 10 | -13 | 25 | -14 | 25 | – | – | – | – | –
2 | COc1ccc(CCN(C)CCCn2nc(C)c3cc(OC)c(OC)cc3c2=O)cc1.Cl [B, 1-[4-methyl-6,7-dimethoxy-1(2H)-phthalazinone-2-yl]-3-[N-methyl-N-(2-(4-methoxyphenyl)-ethyl)-amino]-propane hydrochloride] | – | – | – | – | – | – | -6 | 24 | -23 | 46 | –
3 | COc1ccc(CCN(C)CCCn2nc(C(C)C)c3cc(OC)c(OC)cc3c2=O)cc1OC [C, 1-[4-isopropyl-6,7-dimethoxy-1(2H)-phthalizinone-2-yl]-3-[N-methyl-N-(2-(3,4-dimethoxyphenyl)-ethyl)-amino]-propane hydrochloride] | – | – | – | – | – | – | – | – | -10 | 17 | Decrease in heart rate ([2]; 2.0 mg/kg i.v.): -29 beats/minute; Duration of Effective action ([2]; 2.0 mg/kg i.v.): 10 min
4 | COc1ccc(CCN(C)CCn2nc(C)c3cc(OC)c(OC)cc3c2=O)cc1OC [E, 1-[4-methyl-6,7-dimethoxy-1(2H)-phthalizinone-2-yl]-3-[N-methyl-N-(2-(3,4-dimethoxyphenyl)-ethyl)-amino]-ethane hydrochloride] | – | – | -10 | 9 | -13 | 10 | – | – | – | – | –
5 | COc1ccc(CCN(C)CCCn2nc(C)c3cc(OC)c(OC)cc3c2=O)cc1OC.Cl [A, 1-[4-methyl-6,7-dimethoxy-1(2H)-phthalazinone-2-yl]-3-[N-methyl-N-(2-(3,4-dimethoxyphenyl)-ethyl)-amino]-propane hydrochloride] | -16 | > 50 | -23 | > 70 | -37 | > 70 | -10 | 17 | -16 | 24 | Decrease in heart rate ([1]; 2.0 mg/kg i.d.): -25 beats/minute; Duration of Effective action ([1]; 2.0 mg/kg i.d.): > 74 min; Decrease in heart rate ([1]; 4.0 mg/kg i.d.): -34 beats/minute; Duration of Effective action ([1]; 4.0 mg/kg i.d.): > 60 min; Decrease in heart rate ([1]; 10.0 mg/kg i.d.): -41 beats/minute; Duration of Effective action ([1]; 10.0 mg/kg i.d.): > 50 min; Decrease in heart rate ([2]; 0.5 mg/kg i.v.): -12 beats/minute; Duration of Effective action ([2]; 0.5 mg/kg i.v.): 15 min; LD50 at 336 h [3]: 63 mg/kg
